Test results as given in paper PMC2071910 (Respiratory Research, 2007).
Read-outs that look alike come from different tables or passages of the source.

What was measured:
[1] = In vitro metabolism in human lung precision-cut tissue slices, HPLC with UV detection; format: in vitro ADME; conditions: for Share of BDP-related material in tissue / Share of BDP-related material in medium: incubation of BDP 25 μM; for Share of BDP-related material in tissue: lung tissue extract; for Total amount in human lung tissue slices: Parent compound / Relative drug amount in human lung tissue slices: Parent compound: tissue extract; for Total amount in human lung tissue slices: Parent compound / Relative drug amount in human lung tissue slices: Parent compound / Relative drug amount in medium: Parent compound: mean ± SD n = 9; for Metabolites detected in incubation medium: incubation medium, 2, 6 and 24 h; for Relative drug amount in medium: Parent compound: incubation medium, initial 25 μM
Method: Lung slices were prepared at Vitron, Inc. (Tucson, AZ, USA) as previously described. In brief, the lungs were inflated with 2 to 4 L of 0.5% agar/Waymouth's medium mixture at 37°C and were stored at 4°C for 30 to 60 min. Each lung was cut into 2 cm thick slabs, placed on dental wax, and tissue cylinders of 8 mm diameter were prepared using a cordless coring tool. 400 μm thick slices were cut from the cylinders using a Brendel-Vitron tissue slicer.
Three lung slices from each donor were floated onto titanium roller inserts, blotted, and loaded horizontally into glass scintillation vials containing 1.7 mL of Waymouth's MB752/1 tissue culture medium fortified with 10% fetal calf serum, 0.35 g/L L-glutamine, 10 mL/L Fungi-Bact, and 84 μg/mL gentamicin sulfate.
Three vials were used per substrate and time point. A stock solution of the substrate was added prior to dispensing the media into vials. The final substrate concentration was 25 μM. The vials were closed with caps that had central 2-mm holes, placed in a Dynamic Organ Culture incubator (Vitron, Inc., Tucson, AZ, USA) at 37°C, and exposed to 95% O2 and 5% CO2. The human tissue slices were incubated for 2, 6, and 24 h, and cellular viability of human lung slices was assessed using separate incubation samples (see assessment of cellular viability). Slices and media from each vial were harvested separately into separate tubes and stored at -80°C. Metabolism samples containing either tissue or media were shipped on dry ice from Vitron, Inc. to ALTANA Pharma AG for analysis.
The volume of medium was measured at the end of the incubation period. Samples of the incubation medium were prepared by mixing 60 μL of medium with 60 μL of solution for precipitation (0.2 M ZnSO4/ACN, 1:1). Following centrifugation for 5 min (1,000 × g Model5414, Eppendorf) at room temperature, the supernatant was assayed by high performance liquid chromatography (HPLC). Tissue samples were homogenized in 1 mL of methanol using ultrasonic treatment (Branson Sonifier 250; Branson Ultrasonics Corporation, Danbury, Conn) and were centrifuged for 5 min (1,000 × g Model5414, Eppendorf) at room temperature. After centrifugation, 333 μL of the supernatant was dried under a gentle stream of nitrogen at 45°C and resuspended in 75 μL of methanol before analysis.
HPLC analysis was performed using a Hewlett-Packard HP1090 liquid chromatograph (Agilent Technologies Deutschland GmbH, Waldbronn, Germany) with an ultraviolet (UV) detector monitoring at 242 nm. Separation was achieved using a Hypersil MOS column (125 × 4 mm, 5 μm) (Thermo Electron Corp., Dreieich, Germany). A water/ethanol gradient system was run from 30 to 90% ethanol in 10 min followed by an isocratic phase (6 min) with 90% ethanol at a flow rate of 0.75 mL/min. 25 μL of the tissue extract or 100 μL of the supernatant of the medium were injected onto the column.

[2] = cited from earlier work
[3] = test system: glucocorticoid receptor; conditions: in words, compared with des-CIC and BMP; cited from earlier work
[4] = design: method as in earlier work; conditions: cited from earlier work
[5] = directly after inhalation of CIC 800 μg via MDI; cited from earlier work
[6] = design: method as in PMID 16566061; conditions: 14C-ciclesonide 25 μM, previous study; cited from earlier work
[7] = after inhalation of 1 mg BDP via MDI (Aerobec)
[8] = after inhalation of 1600 μg BUD via Nebuhaler

Q: What does the source list for `CCC(=O)O[C@]1(C(=O)CO)[C@@H](C)C[C@H]2[C@@H]3CCC4=CC(=O)C=C[C@]4(C)[C@@]3(Cl)[C@@H](O)C[C@@]21C` [BMP, beclomethasone-17-monopropionate]?
A: Share of BDP-related material in tissue ([1]; 24 h): 26.6%; Share of BDP-related material in medium ([1]; 24 h): 8.4%; Amount of fatty acid esters formed, fold less than for BUD and des-CIC ([1]; lung tissue, esters formed by BMP (and/or BOH)): approximately 10 fold; Median concentration in bronchial tissue [2, 7]: 4.4 ng/g tissue; Median concentration in serum [2, 7]: 1.2 ng/mL

Q: With `C[C@H]1C[C@H]2[C@@H]3CCC4=CC(=O)C=C[C@]4(C)[C@@]3(Cl)[C@@H](O)C[C@]2(C)[C@@]1(O)C(=O)CO` [BOH, beclomethasone] as the compound, how does the “Share of BDP-related material in tissue” value ([1]; 24 h) read?
A: 64.9%

Q: What about the “Share of BDP-related material in medium” value ([1]; 24 h) of the same compound?
A: 91.6%

Q: Which “Total amount in human lung tissue slices: Parent compound” value (“Total amount” for short) ([1]; 2 h, 25 μM) does the source give for `CCC(=O)OCC(=O)[C@@]1(OC(=O)CC)[C@@H](C)C[C@H]2[C@@H]3CCC4=CC(=O)C=C[C@]4(C)[C@@]3(Cl)[C@@H](O)C[C@@]21C` [Beclomethasone dipropionate, beclomethasone dipropionate] here?
A: 2.19 ± 0.83 nmol/vial

Q: What about the “Total amount” value ([1]; 6 h, 25 μM) of the same compound?
A: 0.72 ± 0.46 nmol/vial

Q: Which “Metabolites detected in incubation medium” value ([1]; 25 μM, listed as BUD) does the source give for `CCCC1O[C@@H]2C[C@H]3[C@@H]4CCC5=CC(=O)C=C[C@]5(C)[C@H]4[C@@H](O)C[C@]3(C)[C@]2(C(=O)CO)O1` (some centres unmarked) [Budesonide, budesonide] here?
A: no metabolites were detected

Q: What about the “Relative drug amount in human lung tissue slices: Parent compound” value ([1]; 2 h, 25 μM) of the same compound?
A: 72.2 ± 10.8 % of total UV areas

Q: And the “Total amount” value ([1]; 2 h, 25 μM)?
A: 7.32 ± 0.99 nmol/vial

Q: And the “Relative drug amount in human lung tissue slices: Parent compound” value ([1]; 6 h, 25 μM)?
A: 64.9 ± 12.0 % of total UV areas

Q: And the “Total amount” value ([1]; 6 h, 25 μM)?
A: 8.41 ± 2.15 nmol/vial

Q: And the “Relative drug amount in human lung tissue slices: Parent compound” value ([1]; 24 h, 25 μM)?
A: 53.6 ± 11.5 % of total UV areas

Q: And the “Total amount” value ([1]; 24 h, 25 μM)?
A: 9.04 ± 1.14 nmol/vial

Q: And the “Affinity to the glucocorticoid receptor” value [3]?
A: slightly lower

Q: And the “Mean concentration in blood plasma” value [2, 8]?
A: 0.63 nmol/kg

Q: And the “Mean concentration in lung tissue obtained from resections” value [2, 8]?
A: 5.5 nmol/kg

Q: Which results are given for `CC(C)C(=O)OCC(=O)[C@@]12O[C@H](C3CCCCC3)O[C@@H]1C[C@H]1[C@@H]3CCC4=CC(=O)C=C[C@]4(C)[C@H]3[C@@H](O)C[C@@]12C` [Ciclesonide, ciclesonide]?
A: Relative drug amount in medium: Parent compound ([1]; 2 h): 94.9 ± 1.3 % of total UV areas; Relative drug amount in medium: Parent compound ([1]; 6 h): 83.2 ± 5.5 % of total UV areas; Relative drug amount in medium: Parent compound ([1]; 24 h): 37.4 ± 7.8 % of total UV areas; Relative drug amount in medium: Parent compound ([1]; 24 h, listed as CIC): 37 % of total UV areas; Relative drug amount in human lung tissue slices: Parent compound ([1]; 2 h, 25 μM): 85.0 ± 3.4 % of total UV areas; Total amount in human lung tissue slices: Parent compound ([1]; 2 h, 25 μM): 6.46 ± 0.92 nmol/vial; Relative drug amount in human lung tissue slices: Parent compound ([1]; 6 h, 25 μM): 73.5 ± 4.7 % of total UV areas; Total amount in human lung tissue slices: Parent compound ([1]; 6 h, 25 μM): 8.86 ± 1.68 nmol/vial; Relative drug amount in human lung tissue slices: Parent compound ([1]; 24 h, 25 μM): 40.0 ± 7.6 % of total UV areas; Total amount in human lung tissue slices: Parent compound ([1]; 24 h, 25 μM): 9.53 ± 1.70 nmol/vial; logD [4]: 6.1

Q: For `CCCCCCCCC=CCCCCCCCC(=O)OCC(=O)C12OC(C3CCCCC3)OC1CC1C3CCC4=CC(=O)C=CC4(C)C3C(O)CC12C` (centres unmarked) [Des-CIC-oleate], which “Lipophilicity relative to BUD-oleate” value ([4]; from logD 13.0 vs 12.3) is on record?
A: about 5 fold

Q: With `CCC(=O)O[C@]1(C(=O)SCF)[C@H](C)C[C@H]2[C@@H]3C[C@H](F)C4=CC(=O)C=C[C@]4(C)[C@@]3(F)[C@@H](O)C[C@@]21C` [Fluticasone propionate, fluticasone propionate] as the compound, how does the “Metabolites detected in incubation medium” value ([1]; 25 μM, listed as FP) read?
A: no metabolites were detected

Q: And the “Metabolites detected in tissue extract / metabolic stability” value ([1]; tissue extract, 2, 6 and 24 h, 25 μM)?
A: no metabolites were detected

Q: What about the “Relative drug amount in human lung tissue slices: Parent compound” value ([1]; 2 h, 25 μM) of the same compound?
A: 100 ± 0.0 % of total UV areas

Q: What about the “Total amount” value ([1]; 2 h, 25 μM) of the same compound?
A: 8.42 ± 1.26 nmol/vial

Q: What about the “Relative drug amount in human lung tissue slices: Parent compound” value ([1]; 6 h, 25 μM) of the same compound?
A: 100 ± 0.0 % of total UV areas

Q: What about the “Total amount” value ([1]; 6 h, 25 μM) of the same compound?
A: 8.62 ± 2.20 nmol/vial

Q: What about the “Relative drug amount in human lung tissue slices: Parent compound” value ([1]; 24 h, 25 μM) of the same compound?
A: 100 ± 0.0 % of total UV areas

Q: And the “Total amount” value ([1]; 24 h, 25 μM)?
A: 9.51 ± 2.22 nmol/vial

Q: And the “Affinity to the glucocorticoid receptor” value [3]?
A: higher

Q: And the logD ([4]; pH 7.4)?
A: 3.7

Q: And the “Concentration in central lung tissue” value ([2]; after single inhalation of FP, in a few patients)?
A: more than 20 ng/g

Q: And the “Mean concentration in serum” value ([2]; after single inhalation of FP, same time as lung tissue sample)?
A: approximately 0.02 ng/mL

Q: Which results are given for `C[C@]12C=CC(=O)C=C1CC[C@@H]1[C@@H]2[C@@H](O)C[C@@]2(C)[C@H]1C[C@H]1O[C@@H](C3CCCCC3)O[C@]12C(=O)CO` [des-CIC, desisobutyryl-ciclesonide]?
A: Relative percentage of des-CIC at the end of the incubation period ([1]; incubation of CIC 25 μM, 24 h, present study): 32%; Affinity to the glucocorticoid receptor [3]: high affinity; Amount detected in mouth rinsing solutions [5]: Only traces; Relative percentage of des-CIC at the end of the incubation period [6]: 29%
